Experiments:
[1] = test system: endogenous target monocytes in human PBMC; assay: PBMC ex vivo monocyte depletion flow cytometry assay (Example 200); type: cell-based; conditions: with anti-cotinine antibody (SEQ ID NO: 11/12), 18-24 hours, EC50 in molar, read-out: Ex Vivo Depletion Assay pEC50 (converted)
Summary of the method: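 Monocyte depletion is reported as pEC50, averaged or given individually across runs, and read by flow cytometry staining CD45, CD14 and CD4 with a viability dye. Compounds, diluted four-fold over 11 points from 1 mM DMSO stocks, were combined with 30 μg/mL Fc-enhanced anti-cotinine antibody and human PBMC, then incubated 18-24 h at 37° C.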

[2] = molecular target: anti-cotinine antibody (SEQ ID NO: 11/12, rabbit variable region with human IgG1 Fc DE mutation); assay: SPR binding of anti-cotinine antibody to ARM compounds, Biacore T200, 37° C. (Example 202); conditions: SPR Biacore T200, 37° C., pH 7.4, antibody SEQ ID NO: 11/12 captured on protein A; Kd in molar
Summary of the method: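 Antibody captured on a protein A chip; ARM compounds injected at 100 μL/min (200 s association, 2000 s dissociation), 3-fold 5-point series from 200 nM, at 37 °C in HEPES pH 7.4 buffer with 0.005% P20 and 1% DMSO. Double-referenced sensorgrams fit 1:1 for kon, koff, Kd (koff/kon), residence time (1/koff); pKd averaged across runs.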

[3] = test system: CCR2 expressing cells (CD11b+Ly6c+Hi) in peripheral blood; assay: In vivo depletion assay, flow cytometry of peripheral blood (Example 201); design: species or system human CCR2 knock-in mice (C57 background); conditions: hCCR2 knock-in mice, IV 0.1 mpk compound + 10 mpk anti-cotinine antibody (SEQ ID NO: 13/14), peripheral blood at 48 hr
Summary of the method: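 Mice dosed with compound formulated in saline/DMSO/PBS, with anti-cotinine antibody (rabbit variable region, mouse IgG2a Fc) where required, pre-incubated 30 min at room temperature. Terminal peripheral blood RBC-lysed, Fc-blocked, stained for CD45, CD3, CD11b, Ly6C, human CCR2 and 7AAD; percent depletion of CD11b+Ly6c+Hi cells determined by flow cytometry.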

[4] = molecular target: human alpha1 nicotinic acetylcholine (nACh) receptor (Homo sapiens, UniProt P02708); assay: Nicotinic acetylcholine receptor antagonism assay, IONFlux automated patch clamp (Example 203); type: cell-based; conditions: for IC50: antagonism of ACh-stimulated human alpha1 nAChR current, patch clamp; for Emax at 10 µM: maximum percentage antagonism at maximum concentration tested 10 μM, read-out: Maximum Response
Chain of human alpha1 nicotinic acetylcholine (nACh) receptor (P02708 21-457): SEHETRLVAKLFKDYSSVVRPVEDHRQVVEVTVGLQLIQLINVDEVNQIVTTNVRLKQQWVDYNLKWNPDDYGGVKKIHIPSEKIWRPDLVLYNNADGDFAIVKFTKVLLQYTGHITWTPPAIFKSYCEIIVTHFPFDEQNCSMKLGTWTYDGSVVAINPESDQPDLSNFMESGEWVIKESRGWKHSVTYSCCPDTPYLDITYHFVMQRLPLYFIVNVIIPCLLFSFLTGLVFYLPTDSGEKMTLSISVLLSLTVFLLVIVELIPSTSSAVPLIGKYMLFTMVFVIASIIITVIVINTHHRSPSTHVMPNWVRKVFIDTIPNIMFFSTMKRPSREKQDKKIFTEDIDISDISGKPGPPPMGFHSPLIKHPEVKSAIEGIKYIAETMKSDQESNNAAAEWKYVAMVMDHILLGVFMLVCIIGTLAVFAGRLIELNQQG
Chain of human alpha1 nicotinic acetylcholine (nACh) receptor (P11230 24-501 partner): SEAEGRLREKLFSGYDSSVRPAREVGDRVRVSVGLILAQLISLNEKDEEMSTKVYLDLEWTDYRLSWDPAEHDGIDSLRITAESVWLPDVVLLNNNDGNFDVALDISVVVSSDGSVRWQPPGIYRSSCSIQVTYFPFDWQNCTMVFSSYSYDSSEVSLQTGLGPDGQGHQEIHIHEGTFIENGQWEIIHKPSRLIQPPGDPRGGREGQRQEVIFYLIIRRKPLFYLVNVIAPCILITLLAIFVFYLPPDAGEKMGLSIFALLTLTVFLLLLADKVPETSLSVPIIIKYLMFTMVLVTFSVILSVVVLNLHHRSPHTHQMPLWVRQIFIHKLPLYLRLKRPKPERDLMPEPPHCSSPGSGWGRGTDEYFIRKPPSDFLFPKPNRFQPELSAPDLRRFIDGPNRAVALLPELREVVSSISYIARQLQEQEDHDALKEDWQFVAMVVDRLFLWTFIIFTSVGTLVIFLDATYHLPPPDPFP
Chain of human alpha1 nicotinic acetylcholine (nACh) receptor (Q07001 22-517 partner): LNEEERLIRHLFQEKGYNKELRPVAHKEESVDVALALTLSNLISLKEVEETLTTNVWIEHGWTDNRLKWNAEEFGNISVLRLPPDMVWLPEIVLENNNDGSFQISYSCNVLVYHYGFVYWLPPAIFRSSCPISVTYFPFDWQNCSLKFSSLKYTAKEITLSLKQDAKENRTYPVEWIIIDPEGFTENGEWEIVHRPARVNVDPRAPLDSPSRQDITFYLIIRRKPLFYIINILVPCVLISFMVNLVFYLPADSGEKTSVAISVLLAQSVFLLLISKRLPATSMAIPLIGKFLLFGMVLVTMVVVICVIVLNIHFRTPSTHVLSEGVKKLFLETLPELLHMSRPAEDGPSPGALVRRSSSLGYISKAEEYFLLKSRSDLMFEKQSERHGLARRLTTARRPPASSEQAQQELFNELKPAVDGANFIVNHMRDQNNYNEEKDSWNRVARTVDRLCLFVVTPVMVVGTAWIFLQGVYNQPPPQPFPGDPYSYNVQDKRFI
Summary of the method: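 Cells expressing human α1 nAChR were incubated with a compound dose response (top 10 μM or 100 μM), then stimulated with ACh (10 mM), and peak current was read by automated patch clamp. % inhibition was taken against ACh-alone control, corrected for vehicle and run-down, and fit non-linearly for IC50; runs were averaged.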

SMILES	EC50 [1]	pKd of Antibody for ARM Compound of Formula (I) [2]	% Depletion of CCR2 expressing cells [3]	IC50 [4]	Emax at 10 µM [4]
CN1C(=O)C[C@H](C(=O)NCCO[C@H]2CC[C@@H](OCCCC(=O)N[C@H]3CC[C@H](C(=O)N[C@@H]4C[C@H](NC(C)(C)C)CC[C@@H]4N4CC[C@H](Nc5ncnc6ccc(C(F)(F)F)cc56)C4=O)CC3)CC2)[C@H]1c1cccnc1 [Example 2, (2S,3S)-N-(2-(((1S,4R)-4-(4-(((1R,4R)-4-(((1R,2S,5R)-5-(tert-Butylamino)-2-((S)-2-oxo-3-((6-(trifluoromethyl)quinazolin-4-yl)amino)pyrrolidin-1-yl)cyclohexyl)carbamoyl)cyclohexyl)amino)-4-oxobutoxy)cyclohexyl)oxy)ethyl)-1-methyl-5-oxo-2-(pyridin-3-yl)pyrrolidine-3-carboxamide]	0.398 nM	9.4775	92.3%	–	–
CC(C)N(C)[C@@H]1CC[C@H](N2CC[C@H](Nc3ncnc4ccc(C(F)(F)F)cc34)C2=O)[C@H](NC(=O)[C@H]2CC[C@@H](NC(=O)CCCO[C@H]3CC[C@@H](OCCNC(=O)[C@H]4CC(=O)N(C)[C@@H]4c4cccnc4)CC3)CC2)C1 [Example 3, (2S,3S)-N-(2-(((1S,4R)-4-(4-(((1S,4S)-4-(((1R,2S,5R)-5-(Isopropyl(methyl)amino)-2-((S)-2-oxo-3-((6-(trifluoromethyl)quinazolin-4-yl)amino)pyrrolidin-1-yl)cyclohexyl)carbamoyl)cyclohexyl)amino)-4-oxobutoxy)cyclohexyl)oxy)ethyl)-1-methyl-5-oxo-2-(pyridin-3-yl)pyrrolidine-3-carboxamide]	0.501 nM	9.2795	87%	–	–
CC(C)N(C)[C@@H]1CC[C@H](N2CC[C@H](Nc3ncnc4ccc(C(F)(F)F)cc34)C2=O)[C@H](NC(=O)[C@H]2CC[C@H](NC(=O)CCCO[C@H]3CC[C@@H](OCCNC(=O)[C@H]4CC(=O)N(C)[C@@H]4c4cccnc4)CC3)CC2)C1 [Example 4, (2S,3S)-N-(2-(((1S,4R)-4-(4-(((1R,4R)-4-(((1R,2S,5R)-5-(Isopropyl(methyl)amino)-2-((S)-2-oxo-3-((6-(trifluoromethyl)quinazolin-4-yl)amino)pyrrolidin-1-yl)cyclohexyl)carbamoyl)cyclohexyl)amino)-4-oxobutoxy)cyclohexyl)oxy)ethyl)-1-methyl-5-oxo-2-(pyridin-3-yl)pyrrolidine-3-carboxamide]	1 nM	9.526	78.8%	–	–
CC(C)N(C)[C@@H]1CC[C@H](N2CC[C@H](Nc3ncnc4ccc(C(F)(F)F)cc34)C2=O)[C@H](NC(=O)CCOCCNC(=O)CCCO[C@H]2CC[C@@H](OCCNC(=O)[C@H]3CC(=O)N(C)[C@@H]3c3cccnc3)CC2)C1 [Example 6, (2S,3S)-N-(2-(((1s,4R)-4-(4-((2-(3-(((1R,2S,5R)-5-(Isopropyl(methyl)amino)-2-((S)-2-oxo-3-((6-(trifluoromethyl)quinazolin-4-yl)amino)pyrrolidin-1-yl)cyclohexyl)amino)-3-oxopropoxy)ethyl)amino)-4-oxobutoxy)cyclohexyl)oxy)ethyl)-1-methyl-5-oxo-2-(pyridin-3-yl)pyrrolidine-3-carboxamide]	0.2 nM	9.282	82%	–	–
CC(C)N(C)[C@@H]1CC[C@H](N2CC[C@H](Nc3ncnc4ccc(C(F)(F)F)cc34)C2=O)[C@H](NC(=O)[C@H]2CC[C@H](NC(=O)CCCO[C@H]3CC[C@H](OCCNC(=O)[C@H]4CC(=O)N(C5CC5)[C@@H]4c4cccnc4)CC3)CC2)C1 [Example 13, (2S,3S)-1-cyclopropyl-N-(2-(((1R,4S)-4-(4-(((1R,4R)-4-(((1R,2S,5R)-5-(isopropyl(methyl)amino)-2-((S)-2-oxo-3-((6-(trifluoromethyl)quinazolin-4-yl)amino)pyrrolidin-1-yl)cyclohexyl)carbamoyl)cyclohexyl)amino)-4-oxobutoxy)cyclohexyl)oxy)ethyl)-5-oxo-2-(pyridin-3-yl)pyrrolidine-3-carboxamide]	–	10.511	96.07%	–	–
CC(C)N(C)[C@@H]1CC[C@H](N2CC[C@H](Nc3ncnc4ccc(C(F)(F)F)cc34)C2=O)[C@H](NC(=O)[C@H]2CC[C@@H](NC(=O)CCCC(=O)NCCCC(=O)NCCCNC(=O)[C@H]3CC(=O)N(C)[C@@H]3c3cccnc3)CC2)C1 [Example 56, N^1-((1S,4s)-4-(((1R,2S,5R)-5-(Isopropyl(methyl)amino)-2-((S)-2-oxo-3-((6-(trifluoromethyl)quinazolin-4-yl)amino)pyrrolidin-1-yl)cyclohexyl)carbamoyl)cyclohexyl)-N^5-(4-((3-((2S,3S)-1-methyl-5-oxo-2-(pyridin-3-yl)pyrrolidine-3-carboxamido)propyl)amino)-4-oxobutyl)glutaramide]	–	9.3185	97%	–	–
CC(C)N(C)[C@@H]1CC[C@H](N2CC[C@H](Nc3ncnc4ccc(C(F)(F)F)cc34)C2=O)[C@H](NC(=O)[C@H]2CC[C@@H](C3CCN(C(=O)CCOCCOCCNC(=O)[C@H]4CC(=O)N(C)[C@@H]4c4cccnc4)CC3)CC2)C1 [Example 72, (2S,3S)-N-(2-(2-(3-(4-((1S,4s)-4-(((1R,2S,5R)-5-(isopropyl(methyl)amino)-2-((S)-2-oxo-3-((6-(trifluoromethyl)quinazolin-4-yl)amino)pyrrolidin-1-yl)cyclohexyl)carbamoyl)cyclohexyl)piperidin-1-yl)-3-oxopropoxy)ethoxy)ethyl)-1-methyl-5-oxo-2-(pyridin-3-yl)pyrrolidine-3-carboxamide]	7.94 nM	9.8865	–	≥ 10000 nM	32.7%
CC(C)N(C)[C@@H]1CC[C@H](N2CC[C@H](Nc3ncnc4ccc(C(F)(F)F)cc34)C2=O)[C@H](NC(=O)[C@H]2CC[C@H](C3CCN(C(=O)CCOCCOCCNC(=O)[C@H]4CC(=O)N(C)[C@@H]4c4cccnc4)CC3)CC2)C1 [Example 73, (2S,3S)-N-(2-(2-(3-(4-((1R,4r)-4-(((1R,2S,5R)-5-(Isopropyl(methyl)amino)-2-((S)-2-oxo-3-((6-(trifluoromethyl)quinazolin-4-yl)amino)pyrrolidin-1-yl)cyclohexyl)carbamoyl)cyclohexyl)piperidin-1-yl)-3-oxopropoxy)ethoxy)ethyl)-1-methyl-5-oxo-2-(pyridin-3-yl)pyrrolidine-3-carboxamide]	100000 nM	9.8185	–	≥ 10000 nM	4.1%
CC(C)N(C)[C@@H]1CC[C@H](N2CC[C@H](Nc3ncnc4ccc(C(F)(F)F)cc34)C2=O)[C@H](NC(=O)COCCOCCNC(=O)CCOCCOCCNC(=O)[C@H]2CC(=O)N(C)[C@@H]2c2cccnc2)C1 [Example 77, (2S,3S)-N-(1-(((1R,2S,5R)-5-(Isopropyl(methyl)amino)-2-((S)-2-oxo-3-((6-(trifluoromethyl)quinazolin-4-yl)amino)pyrrolidin-1-yl)cyclohexyl)amino)-1,10-dioxo-3,6,13,16-tetraoxa-9-azaoctadecan-18-yl)-1-methyl-5-oxo-2-(pyridin-3-yl)pyrrolidine-3-carboxamide]	6.31 nM	9.152	–	≥ 10000 nM	19.6%
CC(C)N(C)[C@@H]1CC[C@H](N2CC[C@H](Nc3ncnc4ccc(C(F)(F)F)cc34)C2=O)[C@H](NC(=O)[C@H]2CC[C@@H](NC(=O)CNC(=O)CCOCCOCCNC(=O)[C@H]3CC(=O)N(C)[C@@H]3c3cccnc3)CC2)C1 [Example 83, (2S,3S)-N-(2-(2-(3-((2-(((1S,4s)-4-(((1R,2S,5R)-5-(Isopropyl(methyl)amino)-2-((S)-2-oxo-3-((6-(trifluoromethyl)quinazolin-4-yl)amino)pyrrolidin-1-yl)cyclohexyl)carbamoyl)cyclohexyl)amino)-2-oxoethyl)amino)-3-oxopropoxy)ethoxy)ethyl)-1-methyl-5-oxo-2-(pyridin-3-yl)pyrrolidine-3-carboxamide]	–	9.302	67%	–	–

Source: US12521393B2, “Cytotoxicity targeting chimeras for CCR2-expressing cells” (GLAXOSMITHKLINE INTELLECTUAL PROPERTY DEVELOPMENT LIMITED, priority 2021, dated 2026)
